Experimental data as given in publication PMC8347364 (International Journal of Molecular Sciences, 2021).

Columns and labels:
ureG = biological target: T1, ureG (uncultured rumen bacterium, UniProt A0A6M3RDS9); experiment: malachite green GTPase assay, single concentration […], almost […] inhibition; type: biochemical
T1 construct: Strep-tagged UreG (GenBank ID: MN660252)

(UniProt A0A6M3RDS9) = biological target: T2, (UniProt A0A6M3RDS9); experiment: malachite green GTPase assay (IC50); Lineweaver-Burk Ki […]; CD change; ITC of nickel binding in its presence; type: biochemical, uncultured rumen bacterium
T2 construct: gene ureG; Strep-tagged UreG (GenBank ID: MN660252)
T2 sequence (A0A6M3RDS9 1-203): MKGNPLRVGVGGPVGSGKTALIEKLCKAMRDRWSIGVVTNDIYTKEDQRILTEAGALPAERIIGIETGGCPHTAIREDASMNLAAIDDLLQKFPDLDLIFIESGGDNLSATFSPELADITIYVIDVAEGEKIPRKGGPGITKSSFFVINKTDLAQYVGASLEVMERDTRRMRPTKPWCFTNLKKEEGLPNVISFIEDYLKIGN

T1 sequence (A0A6M3RDS9 1-203): as above

Row | SMILES | inhibition at 100 µM (ureG) [%] | IC50 ((UniProt A0A6M3RDS9)) [µM]
1 | C=C(C)[C@@H]1CC[C@]2(C(=O)O)CC[C@]3(C)[C@H](CC[C@@H]4[C@@]5(C)CC[C@H](O)[C@@](C)(CO)[C@@H]5CC[C@]43C)[C@@H]12 [anemosapogenin] | ~100 | 
2 | COc1ccc2c(c[n+](C)c3c4cc5c(cc4ccc23)OCO5)c1OC [chelerythrine chloride] |  | 18.1
3 | O=C(/C=C/c1ccc(O)c(O)c1)O[C@H]1[C@H](O)C[C@](O)(C(=O)O)C[C@H]1OC(=O)/C=C/c1ccc(O)c(O)c1 [isochlorogenic acid B] | ~100 | 
